For data set [1], the system named is male Sprague-Dawley rats. The note with it: nasal, 2%, 20 uL/nare; vehicle cyclodextrin; urethane-anesthetized rats; FIG. 2. On the procedure:
Mean arterial blood pressure was measured using a Digi-Med Blood Pressure Analyzer. The rats were anesthetized with urethane (2 g/kg, IP) and the left carotid artery was cannulated. A baseline blood pressure was recorded then the drug (or vehicle) was administered and blood pressure recorded for 45-60 minutes.

Data set [2] concerns male Sprague-Dawley rats.

The results in this text go back to patent US20050191245A1, “Nasal administration of calcium channel, blockers for treatment of hypertension and other cardiovascular disorders” (priority 2004, published 2005).

Read-outs that look alike come from different tables or passages of the source.

As to `C(=C\c1ccccc1)/CN1CCN(C(c2ccccc2)c2ccccc2)CC1` [cinnarizine], the “effect on mean arterial blood pressure compared to vehicle treated group” value in the data set on male Sprague-Dawley rats [1] is recorded as “Only the nifedipine group at 45 minutes was statistically significantly different”. Further, in the data set with male Sprague-Dawley rats [2] (rat, in vivo), the “total distance traveled, compared to no treatment group” value is listed as “statistically significant difference” and the “total distance traveled, drug treated groups compared to vehicle treated group” value is “no significant difference”.
For the compound `COc1ccc([C@@H]2Sc3ccccc3N(CCN(C)C)C(=O)[C@@H]2OC(C)=O)cc1` [diltiazem], in the data set on male Sprague-Dawley rats [2] (rat, in vivo), the “total distance traveled, drug treated groups compared to vehicle treated group” value is reported as “no significant difference”.
As for `COc1ccc(CCN(C)CCCC(C#N)(c2ccc(OC)c(OC)c2)C(C)C)cc1OC` (centres unmarked) [verapamil], the “total distance traveled, drug treated groups compared to vehicle treated group” value in the data set on male Sprague-Dawley rats [2] (nasal, 2%, 20 uL/nare, vehicle distilled water, an hour after administration, FIG. 5) was “no significant difference”.
